In patent US20230087865A1, “PHARMACEUTICAL COMPOSITION FOR ORAL ADMINISTRATION” (HK INNO. N CORPORATION, priority 2020, published 2023):
Where a name gives a salt, the structure may show the parent alone.

Assay: Evaluation of compatibility between tegoprazan and clopidogrel sulfate (2 weeks, HDPE bottle)
Format: physicochemical
Conditions: for content, component in mixture: mixture of tegoprazan and clopidogrel sulfate
Procedure: Example 1. Evaluation of Compatibility Between Tegoprazan and Clopidogrel Sulfate
According to Table 1 above, in order to examine the effect of each of tegoprazan and clopidogrel hydrogen sulfate, compatibility therebetween was evaluated under storage conditions according to the ICH guideline recommendations and drug safety test regulations.
It was shown that, when the two components came into direct contact with each other under each storage condition, the contents of the two components decreased.

[1] = 2 weeks, Accelerated conditions (40° C./RH 75 ± 5%)
[2] = 2 weeks, Stressed conditions (60° C./RH 75 ± 5%)

SMILES | content, component alone [1] | content, component alone [2] | content, component alone (Initial (room temperature)) | content, component in mixture [1] | content, component in mixture [2] | content, component in mixture (Initial (room temperature))
COC(=O)[C@H](c1ccccc1Cl)N1CCc2sccc2C1 [Clopidogrel sulfate, methyl (+)-(S)-α-(2-chlorophenyl)-6,7-dihydrothieno[3,2-c]pyridine-5(4H)-acetate] | 101.1% | 98.3% | 100.2% | 78.9% | 49.0% | 100.3%
Cc1nc2cc(C(=O)N(C)C)cc(O[C@H]3CCOc4cc(F)cc(F)c43)c2[nH]1 [Tegoprazan, (S)-4-((5,7-difluorochroman-4-yl)oxy)-N,N,2-trimethyl-1H-benzo[d]imidazole-6-carboxamide] | 100.3% | 99.1% | 99.8% | 92.0% | 10.5% | 99.7%
